This passage reports AC50, IC50 and EC50 results from ChEMBL document CHEMBL1201862, “PubChem BioAssay data set” (2004).

The source made the active and inactive calls.

One assay concerns the target Paired box protein Pax-8 (Homo sapiens, UniProt Q06710). Put plainly: PAX8 transcriptional activity inhibition in RMG-I – RMG-I cells, luciferase, cherry-pick, dose response (AID 687027).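 Further: luciferase reporter driven by Pax8 target thyroperoxidase promoter measured by SteadyGlo luminescence.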 Type of assay: functional, cell-based.
The nature of assay [1]: intracellular Trypanosoma cruzi inhibitors in host cells – cell-based, plate reader, cherry-pick samples, set 3, dose response (AID 651818).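 Further: compounds incubated with infected cells for about four days.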 The format is functional.
Assay [2] has as its target Glyceraldehyde-3-phosphate dehydrogenase (Homo sapiens, UniProt P04406).
Assay [3] concerns the target T1, Alkaline phosphatase, tissue-nonspecific isozyme (Homo sapiens, UniProt P05186).
T1 sequence (P05186 whole entry): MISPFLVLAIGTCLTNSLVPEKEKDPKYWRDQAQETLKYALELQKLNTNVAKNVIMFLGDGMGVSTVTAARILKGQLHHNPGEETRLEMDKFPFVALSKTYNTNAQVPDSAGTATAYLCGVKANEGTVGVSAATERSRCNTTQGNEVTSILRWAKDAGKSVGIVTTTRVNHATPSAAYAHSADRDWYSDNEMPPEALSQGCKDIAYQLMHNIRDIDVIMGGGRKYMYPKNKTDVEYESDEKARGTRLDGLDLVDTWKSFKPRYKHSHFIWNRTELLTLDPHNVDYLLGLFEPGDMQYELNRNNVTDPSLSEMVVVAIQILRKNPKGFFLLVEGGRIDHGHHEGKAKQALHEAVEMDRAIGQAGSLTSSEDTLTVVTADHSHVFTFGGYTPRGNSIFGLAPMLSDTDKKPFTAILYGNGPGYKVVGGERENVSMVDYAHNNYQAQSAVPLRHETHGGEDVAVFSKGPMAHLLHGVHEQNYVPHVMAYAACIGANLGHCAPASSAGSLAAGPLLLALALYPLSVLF
Put plainly: potency against alkaline phosphatase TNAP – biochemical, luminescent, dose response, SAR follow-up (AID 1056).

The target of assay [4] is T2, Corticotropin-releasing factor receptor 2/Corticotropin-releasing factor-binding protein (Homo sapiens, UniProt P24387+Q13324).
T2 sequence (Q13324 whole entry): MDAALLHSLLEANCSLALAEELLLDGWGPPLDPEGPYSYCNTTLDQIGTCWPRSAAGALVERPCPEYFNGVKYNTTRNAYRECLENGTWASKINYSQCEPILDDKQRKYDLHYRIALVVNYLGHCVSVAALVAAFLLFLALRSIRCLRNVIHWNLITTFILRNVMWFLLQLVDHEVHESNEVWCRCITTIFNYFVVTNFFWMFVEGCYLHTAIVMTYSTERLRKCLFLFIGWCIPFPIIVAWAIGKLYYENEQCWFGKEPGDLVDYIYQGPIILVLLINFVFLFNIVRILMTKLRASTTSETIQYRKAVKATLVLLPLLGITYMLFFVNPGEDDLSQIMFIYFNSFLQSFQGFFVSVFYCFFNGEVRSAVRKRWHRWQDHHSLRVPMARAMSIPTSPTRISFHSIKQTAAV
T2 sequence (P24387 whole entry): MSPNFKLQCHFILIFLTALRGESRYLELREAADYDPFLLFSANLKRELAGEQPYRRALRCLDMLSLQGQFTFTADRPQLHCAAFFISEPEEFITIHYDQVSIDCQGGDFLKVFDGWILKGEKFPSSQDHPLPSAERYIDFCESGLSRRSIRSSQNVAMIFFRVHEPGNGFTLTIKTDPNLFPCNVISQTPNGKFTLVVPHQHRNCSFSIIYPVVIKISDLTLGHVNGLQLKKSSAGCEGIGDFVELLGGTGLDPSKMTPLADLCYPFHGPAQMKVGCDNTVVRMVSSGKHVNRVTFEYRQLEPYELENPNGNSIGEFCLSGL
Put plainly: Dose Response confirmation of uHTS hits for small molecule antagonists of the CRF-binding protein and CRF-R2 receptor complex. Type of assay: functional. The conditions noted are these: read-out: IC50_Mean.

Assay [5] deals with T2, Corticotropin-releasing factor receptor 2/Corticotropin-releasing factor-binding protein. Put plainly: activators of CRF receptor 2 with binding protein – uHTS hits, confirmation (AID 602473). The format is functional. The conditions noted are these: read-out: EC50_Mean.
A short description of assay [6]: non-specific 3'UTR reporter inhibition in Clone20-Shn3RL – cell-based, Renilla luciferase, cherry-picked, counter-screen for Shn3 inhibitor project, dose response (AID 624133). Type of assay: functional.
Another assay concerns the target T3, Protein RecA (Mycobacterium tuberculosis, UniProt P9WHJ3).
T3 sequence (P9WHJ3 whole entry): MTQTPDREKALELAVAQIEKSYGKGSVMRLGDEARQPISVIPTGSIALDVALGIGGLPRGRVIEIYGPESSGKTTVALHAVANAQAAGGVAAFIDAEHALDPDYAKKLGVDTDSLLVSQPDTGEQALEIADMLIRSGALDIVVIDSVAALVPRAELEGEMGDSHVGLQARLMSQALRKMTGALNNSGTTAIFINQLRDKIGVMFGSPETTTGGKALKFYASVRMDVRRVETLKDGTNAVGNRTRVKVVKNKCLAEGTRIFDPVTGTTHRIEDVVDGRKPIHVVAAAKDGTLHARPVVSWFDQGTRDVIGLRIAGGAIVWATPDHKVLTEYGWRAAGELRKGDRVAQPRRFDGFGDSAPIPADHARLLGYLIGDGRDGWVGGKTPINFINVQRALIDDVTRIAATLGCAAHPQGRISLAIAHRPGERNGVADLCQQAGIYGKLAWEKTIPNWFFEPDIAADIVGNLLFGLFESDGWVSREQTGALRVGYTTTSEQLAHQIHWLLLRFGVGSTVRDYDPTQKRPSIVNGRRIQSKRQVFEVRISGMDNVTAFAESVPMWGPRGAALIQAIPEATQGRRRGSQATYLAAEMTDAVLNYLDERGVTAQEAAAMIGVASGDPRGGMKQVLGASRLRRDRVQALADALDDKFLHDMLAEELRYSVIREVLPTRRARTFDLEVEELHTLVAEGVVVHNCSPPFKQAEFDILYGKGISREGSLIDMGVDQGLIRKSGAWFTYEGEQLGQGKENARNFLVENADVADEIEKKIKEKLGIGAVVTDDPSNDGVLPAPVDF
Put plainly: Fluorescence Cell-Free Homogeneous Dose Retest to Identify Inhibitors of RecA-Intein Splicing Activity. [Related pubchem assays (depositor defined):AID2097, AID2223, AID489010, AID492950]. The format is functional.

Assay [7] in a line: cells. The format is functional, cell-based.
Assay [8] is described as follows: cells. The format is functional, cell-based. The source holds these as a separate data set.
A short description of assay [9]: loss of viability in HepG2 cells – cell-based, CellTiter-Glo, cherry-picked, cytotoxicity control for Shn3 inhibitor project, dose response (AID 624134). The format is functional. (ATP-based viability assays read luminescence as a measure of living cells.)
Assay [10] concerns the target T4, Replicative DNA helicase DnaB (Mycobacterium tuberculosis, UniProt P9WMR3).
T4 sequence (P9WMR3 whole entry): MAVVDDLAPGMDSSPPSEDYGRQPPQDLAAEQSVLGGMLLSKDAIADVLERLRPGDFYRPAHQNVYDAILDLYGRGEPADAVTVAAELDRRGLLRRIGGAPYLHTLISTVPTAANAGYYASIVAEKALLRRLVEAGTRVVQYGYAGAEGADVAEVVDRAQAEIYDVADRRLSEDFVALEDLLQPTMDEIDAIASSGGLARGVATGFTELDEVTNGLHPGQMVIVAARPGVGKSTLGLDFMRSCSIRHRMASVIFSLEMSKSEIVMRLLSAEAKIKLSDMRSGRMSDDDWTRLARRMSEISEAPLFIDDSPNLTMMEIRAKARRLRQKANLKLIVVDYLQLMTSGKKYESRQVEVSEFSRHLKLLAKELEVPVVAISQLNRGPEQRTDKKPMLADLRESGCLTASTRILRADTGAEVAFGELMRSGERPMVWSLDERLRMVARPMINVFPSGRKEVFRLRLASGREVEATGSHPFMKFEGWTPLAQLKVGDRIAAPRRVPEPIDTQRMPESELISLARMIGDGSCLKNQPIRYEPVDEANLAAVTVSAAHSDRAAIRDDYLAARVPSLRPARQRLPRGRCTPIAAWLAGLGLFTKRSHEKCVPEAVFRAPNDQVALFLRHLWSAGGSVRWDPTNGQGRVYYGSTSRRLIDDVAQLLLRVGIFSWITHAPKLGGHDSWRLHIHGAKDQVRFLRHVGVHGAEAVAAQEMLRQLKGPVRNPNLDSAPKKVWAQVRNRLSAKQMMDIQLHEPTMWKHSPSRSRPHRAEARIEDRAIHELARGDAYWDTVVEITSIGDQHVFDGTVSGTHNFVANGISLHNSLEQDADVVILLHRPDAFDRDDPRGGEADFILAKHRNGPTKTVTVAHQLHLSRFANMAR
Put plainly: DnaB intein splicing inhibitors, dose response, biochemical, cell-free fluorescence (AID 449749). The format is functional.

Assay [11] in a line: reduction of Shn3 3'UTR-driven luciferase in osteoblasts – cell-based, Clone20 osteoblasts, firefly luciferase, cherry-picked, dose response (AID 624132).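 Further: firefly luciferase luminescence from reporter carrying the Shn3 3'UTR in osteoblasts.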 Type of assay: functional.
A short description of assay [12]: off-target signal loss in HeLa-CEM21 co-culture – HeLa F-luc CTL cells, cherry-picked, counter-screen for HIV-1 Env fusion inhibitor project, dose response (AID 652040).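 Further: potency for signal decrease marking cytotoxic or nonspecific inhibition.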 Type of assay: functional, cell-based. A general note: The purpose of a counterscreen is to sort out artefacts and off-target activity.
The nature of assay [13]: HIV-1 AD8 envelope cell-cell fusion blockers – cherry-pick, dose response (AID 652062).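 Further: luciferase signal from cell-cell fusion driven by HIV-1 clade B AD8 Env; potency is for inhibitors of fusion seen as a drop in luminescence.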 The format is functional, cell-based.

Chain of Glyceraldehyde-3-phosphate dehydrogenase (P04406 whole entry): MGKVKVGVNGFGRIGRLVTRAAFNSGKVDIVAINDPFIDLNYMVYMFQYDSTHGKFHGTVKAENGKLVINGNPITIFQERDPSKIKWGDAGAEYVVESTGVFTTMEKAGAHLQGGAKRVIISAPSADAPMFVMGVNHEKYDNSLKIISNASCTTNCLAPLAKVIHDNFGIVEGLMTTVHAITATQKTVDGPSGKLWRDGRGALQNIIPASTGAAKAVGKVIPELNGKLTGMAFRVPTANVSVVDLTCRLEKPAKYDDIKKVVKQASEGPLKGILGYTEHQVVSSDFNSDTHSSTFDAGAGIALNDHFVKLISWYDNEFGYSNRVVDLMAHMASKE
Chain of Paired box protein Pax-8 (Q06710 whole entry): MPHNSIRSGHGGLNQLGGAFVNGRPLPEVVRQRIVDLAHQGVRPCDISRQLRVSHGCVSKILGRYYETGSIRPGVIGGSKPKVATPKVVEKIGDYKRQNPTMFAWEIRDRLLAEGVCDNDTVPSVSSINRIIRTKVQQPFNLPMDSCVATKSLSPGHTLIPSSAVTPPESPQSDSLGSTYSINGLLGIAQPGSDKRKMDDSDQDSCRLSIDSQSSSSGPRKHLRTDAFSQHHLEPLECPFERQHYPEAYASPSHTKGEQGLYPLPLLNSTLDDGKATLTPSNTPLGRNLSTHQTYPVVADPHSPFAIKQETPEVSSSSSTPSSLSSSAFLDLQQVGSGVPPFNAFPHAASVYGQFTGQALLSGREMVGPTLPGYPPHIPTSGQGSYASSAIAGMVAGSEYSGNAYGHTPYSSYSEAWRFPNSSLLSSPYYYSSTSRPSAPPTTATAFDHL

The term AC50 denotes the concentration at which the activity in the assay is half-maximal. Take `C[C@@H]1CCCCO[C@H](CN(C)Cc2ccncc2)[C@H](C)CN([C@@H](C)CO)C(=O)c2cc(NC(=O)Nc3ccc(C(F)(F)F)cc3)ccc2O1`: the AC50 on Paired box protein Pax-8 is 13.6 µM (active). As to `C[C@@H]1CCCCO[C@@H](CN(C)C(=O)NC2CCCCC2)[C@@H](C)CN([C@H](C)CO)C(=O)c2cc(NC(=O)Nc3ccc(C(F)(F)F)cc3)ccc2O1`, the AC50 in assay [1] is 4.12 µM (active). Take `CC(=O)Nc1nnc(SCCc2ccccc2)[nH]1`: the IC50 is > 100 µM (not active) in assay [2] and > 100 µM (inactive) in assay [3]. For the compound `Cc1cccc(S(=O)(=O)N2CC[C@@H]3[C@H](CO)Nc4ccc(C5=CCCCC5)cc4[C@@H]32)c1`, the AC50 on Paired box protein Pax-8 is 10.9 µM (active). As for `O=C1C(Cl)=C(N2CCN(c3ncccn3)CC2)C(=O)N1c1cccc(C(F)(F)F)c1`, the IC50 in assay [2] is > 50 µM (inconclusive). For `COc1ccc(OC)c(S(=O)(=O)Nc2ccc[nH]c2=O)c1`, the IC50 in [2] is > 100 µM (not active); in assay [3], 6.32 µM (active).

Consider `O=C(C[C@@H]1CC[C@@H]2[C@H](COC[C@H](O)CN2S(=O)(=O)c2cccc(Cl)c2)O1)Nc1ccc(-c2ccccc2)cc1`, for which, on Paired box protein Pax-8, the AC50 is 9.87 µM (active).

Turning to `CCCSc1nnc(NC(C)=O)[nH]1`, the IC50 in assay [2] is > 10 µM (inconclusive); in [3], 0.449 µM (active); in [4] it was > 47.1 µM (inactive). Moreover, the EC50 in assay [5] is > 53 µM (inactive). Take `O=C(c1[nH]nc2c1COc1ccccc1-2)N1CCCC1`: the results for the IC50 in [2] and in assay [3] were > 100 µM (not active) and 0.289 µM (active), respectively. As to `c1cncc(-c2nccs2)c1`, the values for the IC50 in [2] and in [3] were > 100 µM (not active) and > 100 µM (inactive), respectively. Turning to `C[C@@H]1CN([C@@H](C)CO)C(=O)c2cccc(NC(=O)c3nc4ccccc4s3)c2O[C@H]1CN(C)Cc1ccc(-c2ccccc2)cc1`, the AC50 in [1] is 3.59 µM (active). On to `C[C@H]1CN([C@@H](C)CO)C(=O)c2cc(NC(=O)Nc3cccc4ccccc34)ccc2O[C@H]1CN(C)Cc1ccc(Cl)c(Cl)c1`, for which, in assay [1], the AC50 is 5.7 µM (active). For `C[C@@H]1CCCCO[C@@H](CN(C)Cc2ccc(C(F)(F)F)cc2)[C@@H](C)CN([C@H](C)CO)C(=O)c2cc(NC(=O)Nc3ccc(F)cc3)ccc2O1`, in assay [1], the AC50 is 6.87 µM (active). Take `COc1ccccc1-c1cc(C(F)(F)F)nc(S(=O)(=O)CCCC(=O)N2CCCCC2C)n1` (centres undefined): the AC50 is 8.84 µM (active) in assay [6], 25.7 µM (active) in assay [9], 1.97 µM (active) in assay [10] and 2.65 µM (active) in assay [11]. For the same compound, the figures for the EC50 on Protein RecA, in “cells [7]” and in the assay “cells [8]” were 3.11 µM (active), > 350 µM (not active) and > 350 µM (not active), respectively. Turning to `C[C@@H]1CN([C@H](C)CO)C(=O)Cc2cc(NC(=O)Nc3ccc(F)cc3)ccc2O[C@@H]1CN(C)Cc1ccc(C(=O)Nc2ccccc2N)cc1`, the AC50 in [1] is 2.04 µM (active). Take `c1cncc(Cn2ccnc2)c1`: the IC50 in [2] is > 100 µM (not active); in assay [3] it was > 100 µM (inactive).

Turning to `COc1ccc(S(=O)(=O)Nc2ccc3c(c2)C(=O)N([C@@H](C)CO)C[C@H](C)[C@H](CN(C)Cc2ccc(Oc4ccccc4)cc2)O3)cc1`, the AC50 in assay [1] was 1.94 µM (active). Take `C[C@@H]1CCCCO[C@H](CN(C)Cc2ccc(C(F)(F)F)cc2)[C@@H](C)CN([C@H](C)CO)C(=O)c2cc(NC(=O)Nc3ccccc3)ccc2O1`: the AC50 in assay [1] is 4.7 µM (active). As to `CCCn1c(=S)[nH]c2cc(C(=O)N3CCCC(C(=O)OCC)C3)ccc2c1=O` (centres undefined), the AC50 in assay [12] was > 70 µM (inactive); in assay [13], 23.2 µM (active).
